Assay results as given in US10668055B2, “Cancer treatment using combinations of ERK and RAF inhibitors” (BIOMED VALLEY DISCOVERIES, INC., priority 2013, dated 2020).

Tests used:
[1] = test system: A375 human melanoma xenograft; experiment: A375 in vivo study: tumor growth delay and regression responses; parameters: species or system athymic nude mice
Description: Female athymic nude mice (Crl:NU(Ncr)-Foxn/^nu, Charles River) were nine weeks old with a body weight (BW) range of 17.5 to 26.2 grams on Day 1 of the study. The animals were fed ad libitum water (reverse osmosis, 1 ppm CI), and NIH 31 Modified and Irradiated Lab Diet® consisting of 18.0% crude protein, 5.0% crude fat, and 5.0% crude fiber. The mice were housed on irradiated Enrich-o'cobs™ Laboratory Animal Bedding in static microisolators on a 12-hour light cycle at 20-22° C. (68-72° F.) and 40-60% humidity. The recommendations of the Guide for Care and Use of Laboratory Animals with respect to restraint, husbandry, surgical procedures, feed and fluid regulation, and veterinary care were complied with.
Tumor xenografts were initiated with A375 human melanomas by serial subcutaneous transplantation in athymic nude mice. On the day of tumor implant, each test mouse received a 1 mm^3 A375 fragment implanted subcutaneously in the right flank, and tumor growth was monitored as the average size approached the target range of 80 to 120 mm^3. Tumors were measured in two dimensions using calipers, and volume was calculated using the formula: […]
Ten days after tumor implantation, designated as Day 1 of the study, the animals were sorted into nine groups (Groups 1-9) each consisting of fifteen mice and one group (Group 10) consisting of ten mice. Individual tumor volumes ranged from 75 to 144 mm^3 and group mean tumor volumes were 110 or 111 mm^3.
On Day 1 of the study, mice were sorted into nine groups (Group 1-9) each consisting of fifteen mice and one group (Group 10) consisting of ten mice, and dosing was initiated according to the treatment plan summarized in Table 15 below. Each dose was given by oral gavage (p.o.) in a dosing volume of 10 mL/kg (0.2 mL per 20 grams of body weight), scaled to the body weight of each individual animal. The vehicle and dabrafenib doses were to be given once daily until study end (qd to end), whereas the BVD-523 doses were to be given twice daily until study end (bid to end). For bid dosing, dosing was initiated in the afternoon on Day 1, so that one dose was given on the first day (“first day 1 dose”).
Due to the striking response to combination treatment, dosing in Groups 2-5 was stopped on Day 20 in order to monitor tumor re-growth. Dosing was to be re-initiated in a group when the mean tumor burden reached 1000 mm^3. By Day 42, the 1000 mm^3 mean tumor burden had not been reached in any of the combination groups. Dosing was re-initiated to permit post-final dose serum and tumor sampling for pharmacokinetic analyses. […] The final dosing schedules are shown below in Table 16.
Tumors were measured using calipers twice per week, and each animal was euthanized when its tumor reached the pre-determined tumor volume endpoint of 2000 mm^3 or on the final day, whichever came first. Animals that exited the study for tumor volume endpoint were documented as euthanized for tumor progression (TP), with the date of euthanasia. The time to endpoint (TTE) for analysis was calculated for each mouse by the following equation:
[formula] where TTE is expressed in days, endpoint volume is expressed in mm^3, b is the intercept, and m is the slope of the line obtained by linear regression of a log-transformed tumor growth data set. The data set consists of the first observation that exceeded the endpoint volume used in analysis and the three consecutive observations that immediately preceded the attainment of this endpoint volume. The calculated TTE is usually less than the TP date, the day on which the animal was euthanized for tumor size. […] Any animal classified as having died from NTR (non-treatment-related) causes due to accident (NTRa) or due to unknown etiology (NTRu) were excluded from TTE calculations (and all further analyses). Animals classified as TR (treatment-related) deaths or NTRm (non-treatment-related death due to metastasis) were assigned a TTE value equal to the day of death. […]

[2] = A375 in vivo study: toxicity (body weight, deaths, side effects)
Description: Animals were weighed daily on Days 1-5, then twice per week until completion of the study. […] Individual body weight loss was monitored as per protocol, and any animal that exceeded the limits for acceptable body weight loss was euthanized. Group mean body weight loss also was monitored as per protocol. Dosing was to be suspended in any group that exceeded the limits for acceptable mean body weight loss. If mean body weight recovered, then dosing was to be resumed in that group, but at a lower dosage or less frequent dosing schedule.
Acceptable toxicity for the maximum tolerated dose (MTD) was defined as a group mean body-weight loss of less than 20% during the study and not more than 10% treatment-related (TR) deaths. […] A death was classified as non-treatment-related (NTR) if there was no evidence that death was related to treatment side effects. NTR deaths were further characterized based on cause of death. A death was classified as NTRa if it resulted from an accident or human error. […] A death was classified as NTRu if the cause of death was unknown and there was no available evidence of death related to treatment side effects, metastasis, accident or human error, although death due to treatment side effects cannot be excluded.

[3] = test system: A375; experiment: Single agent proliferation assay (CellTiter-Glo, 72 h); assay type: cell-based, human; details: Homo sapiens, A-375; A375, 72 h
Description: (§1) Cells were seeded in 96-well plates at the densities and media conditions indicated in Table 17 and allowed to adhere overnight prior to addition of compound or vehicle control. Compounds were prepared from DMSO stocks to give the desired final concentrations. The final DMSO concentration was constant at 0.1%. Test compounds were incubated with the cells for 72 h at 37° C., 5% CO2 in a humidified atmosphere. CellTiter-Glo® reagent (Promega, Madison, Wis.) was added according to manufacturer's instructions and luminescence detected using the BMG FLUOstar plate reader (BMG Labtech, Ortenberg, Germany). The average media only background value was deducted and the data analysed using a 4-parameter logistic equation in GraphPad Prism (GraphPad Software, La Jolla, Calif.).

[4] = test system: G-361; experiment: as above; assay type: cell-based; details: Homo sapiens, G-361, 72 h
Description: as §1

[5] = test system: A375 cells; experiment: Combination study, 10×8 dose matrix, Alamar Blue / CellTiter-Glo, Bliss additivity model; assay type: cell-based, human; details: single agent
Description: For combination studies, A375 cells (ATCC) were seeded into triplicate 96-well plates at a cell density of 3000 cells/well in DMEM plus 10% FBS and allowed to adhere overnight prior to addition of test compound or vehicle control. Combinations were tested using a 10×8 dose matrix with a final DMSO concentration of 0.2%. A 96 hour assay incubation period followed, with subsequent addition of Alamar Blue 10% (v/v) and 4 hours incubation prior to reading on a fluorescent plate reader. After reading Alamar Blue, the medium/Alamar Blue mix was flicked off and 100 μl of CellTiter-Glo/PBS (1:1) added and the plates processed as per the manufacturer's instructions (Promega). Media only background values were subtracted before the data was analysed. The Bliss additivity model was then applied.
In brief, predicted fractional inhibition values for combined inhibition were calculated using the equation Cbliss=A+B−(A×B) where A and B are the fractional inhibitions obtained by drug A alone or drug B alone at specific concentrations. Cbliss is the fractional inhibition that would be expected if the combination of the two drugs were exactly additive. Cbliss values are subtracted from the experimentally observed fractional inhibition values to give an ‘excess over Bliss’ value. Excess over Bliss values greater than 0 indicate synergy, whereas values less than 0 indicate antagonism. […]

[6] = test system: melanoma xenograft model derived from biopsies obtained from a patient; experiment: Melanoma xenograft model derived from patient biopsies after progression on vemurafenib; assay type: in vivo; details: model with acquired cross-resistance

Question: Which results are given for `Cn1nnc2c(C(N)=O)ncn2c1=O` [Temozolomide]?
Answer: % TGD ([1]; G10: 150 mg/kg po qd × 5): 14%; CR (complete regressions) ([1]; G10: 150 mg/kg po qd × 5): 0; Median TTE ([1]; G10: 150 mg/kg po qd × 5): 10.5 days; PR (partial regressions) ([1]; G10: 150 mg/kg po qd × 5): 0; T-C ([1]; G10: 150 mg/kg po qd × 5): 1.3 days; TFS (tumor free survivors) ([1]; G10: 150 mg/kg po qd × 5): 0; Deaths NTR ([2]; G10: 150 mg/kg po qd × 5): 0; Deaths TR ([2]; G10: 150 mg/kg po qd × 5): 0; Mean BW Nadir ([2]; G10: 150 mg/kg po qd × 5, nadir on Day 5): −1.6% Day 5

Question: Which results are given for `CCCS(=O)(=O)Nc1ccc(F)c(C(=O)c2c[nH]c3ncc(-c4ccc(Cl)cc4)cc23)c1F` [Vemurafenib]?
Answer: IC50 [3]: 47 nM; IC50 [4]: 248 nM

Question: What does the source list for `CC(C)(C)c1nc(-c2cccc(NS(=O)(=O)c3c(F)cccc3F)c2F)c(-c2ccnc(N)n2)s1` [Dabrafenib]?
Answer: Sensitivity of A375 cells (BRAF V600E) [5]: sensitive; % TGD ([1]; G6: 50 mg/kg po qd to end): 75%; CR (complete regressions) ([1]; G6: 50 mg/kg po qd to end): 0; Median TTE ([1]; G6: 50 mg/kg po qd to end): 16.1 days; PR (partial regressions) ([1]; G6: 50 mg/kg po qd to end): 0; T-C ([1]; G6: 50 mg/kg po qd to end): 6.9 days; TFS (tumor free survivors) ([1]; G6: 50 mg/kg po qd to end): 0; Tumors that attained the 2000 mm^3 endpoint volume ([1]; G6: 50 mg/kg po qd to end): All; % TGD ([1]; G7: 100 mg/kg po qd to end): 210%; CR (complete regressions) ([1]; G7: 100 mg/kg po qd to end): 0; Median TTE ([1]; G7: 100 mg/kg po qd to end): 28.5 days; PR (partial regressions) ([1]; G7: 100 mg/kg po qd to end): 1; T-C ([1]; G7: 100 mg/kg po qd to end): 19.3 days; TFS (tumor free survivors) ([1]; G7: 100 mg/kg po qd to end): 0; Tumors that attained the 2000 mm^3 endpoint volume ([1]; G7: 100 mg/kg po qd to end): 13/15; MTV (n) D45 ([1]; G7: 100 mg/kg po qd to end, Day 45): 282 (2) imd; PR (partial regressions) ([1]; G7: 100 mg/kg po qd to end, listed as dabrafenib): One and one; MTV ([1]; G7: 100 mg/kg po qd to end, two tumors remaining on Day 45): 282 mm^3; Deaths NTR ([2]; G6: 50 mg/kg po qd to end): 0; Deaths TR ([2]; G6: 50 mg/kg po qd to end): 0; Deaths NTR ([2]; G7: 100 mg/kg po qd to end): 0; Deaths TR ([2]; G7: 100 mg/kg po qd to end): 0; Signs of treatment-related side effects ([2]; mono- and combination therapy groups): no noteworthy signs of treatment-related side effects; Anti-tumor response [6]: insensitive; IC50 [3]: ~0.7 nM; IC50 [4]: ~1.4 nM
